Earlier results in patent publication US6943193B1, “Method for treating sexual dysfunction” (priority 2003, dated 2005).

System: erectile dysfunction

Question: What does the source list for CCCc1nn(C)c2c(=O)[nH]c(-c3cc(S(=O)(=O)N4CCN(C)CC4)ccc3OCC)nc12 [sildenafil]?
Answer: efficacy (clinical practice): ~50%; success rates (initial reports): ≤ 85%
